From patent publication US20250059164A1, “IRAK DEGRADERS AND USES THEREOF” (Kymera Therapeutics, Inc., priority 2023, published 2025)

What was measured:
IRAK4 = biological target: T1, IRAK4 (Homo sapiens, UniProt Q9NWZ3); test: IRAK4 MSD degradation in OCI-LY10; format: cell-based; conditions: OCI-LY10 cells, 24 hrs, Meso Scale Discovery
T1 construct: endogenous in cells; host or cells: OCI-LY10
T1 sequence (Q9NWZ3 1-460): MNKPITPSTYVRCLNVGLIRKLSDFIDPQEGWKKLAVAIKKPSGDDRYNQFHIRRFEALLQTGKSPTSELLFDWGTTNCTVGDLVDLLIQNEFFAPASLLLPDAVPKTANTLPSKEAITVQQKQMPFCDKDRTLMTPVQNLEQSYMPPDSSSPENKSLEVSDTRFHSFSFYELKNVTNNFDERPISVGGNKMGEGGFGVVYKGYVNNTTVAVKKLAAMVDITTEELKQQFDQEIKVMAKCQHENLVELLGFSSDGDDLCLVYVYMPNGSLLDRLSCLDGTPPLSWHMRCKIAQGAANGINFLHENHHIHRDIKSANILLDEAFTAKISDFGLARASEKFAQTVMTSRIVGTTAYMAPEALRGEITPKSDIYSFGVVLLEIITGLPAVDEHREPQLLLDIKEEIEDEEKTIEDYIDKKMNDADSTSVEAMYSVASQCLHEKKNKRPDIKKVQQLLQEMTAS
Method in brief: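 Remaining IRAK4 protein measured by Meso Scale Discovery electrochemiluminescence sandwich assay on lysates of OCI-LY10 cells. Cells were exposed for 4 to 24 hours (37° C., 5% CO2) to eight 1:3-diluted concentrations starting at 1 to 10 μM. DC50 derived by three-parameter logistic fitting.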

[1] = Rodent pharmacokinetics (rat PK); format: in vivo; conditions: po, dosed intravenously or orally by gavage, plasma, read-out: F % (bioavailability)
Experimental: All studies related to handling, care, and treatment of rats in the study were performed according to the guidelines approved by the Institutional Animal Care and Use Committee (IACUC). All rats had access to food and water ad libitum. Rats were dosed intravenously or orally by gavage. Whole blood was collected from the jugular vein immediately prior to dosing and at 5 (intravenously administered drugs only), 15, and 30 min and 1, 2, 4, 8, and 24 h after drug administration. After sampling, whole blood was centrifuged at 4,000×g for 5 min at 4° C. to obtain plasma.
The letter codes for bioavailability (F %) include: A (≥5%) and B (≤5%).

Row | DC50 (IRAK4) [nM] | bioavailability [1] [%] | Structure (SMILES)
1 | < 10 | ≤ 5 | Cn1c(=O)n(C2CCC(=O)NC2=O)c2cccc(N3CCC4(CCN(C[C@H]5CC[C@H](n6cc7cc(NC(=O)c8cncc(C#N)c8)c(C(C)(C)O)cc7n6)CC5)CC4(F)F)CC3)c21 (mixture of isomers) [I-136, 5-Cyano-N-[2-[4-[[9-[1-(2,6-dioxo-3-piperidyl)-3-methyl-2-oxo-benzimidazol-4-yl]-5,5-difluoro-3,9-diazaspiro[5.5]undecan-3-yl]methyl]cyclohexyl]-6-(1-hydroxy-1-methyl-ethyl)indazol-5-yl]pyridine-3-carboxamide]
2 | < 10 | ≤ 5 | COc1ccc2c(c1N1CC3(CCN(C[C@H]4CC[C@H](n5cc6cc(NC(=O)c7cncc(C#N)c7)c(C(C)(C)O)cc6n5)CC4)CC3(F)F)C1)n(C)c(=O)n2C1CCC(=O)NC1=O (mixture of isomers) [I-227, 5-Cyano-N-[2-[4-[[2-[1-(2,6-dioxo-3-piperidyl)-5-methoxy-3-methyl-2-oxo-benzimidazol-4-yl]-5,5-difluoro-2,7-diazaspiro [3.5]nonan-7-yl]methyl]cyclohexyl]-6-(1-hydroxy-1-methyl-ethyl)indazol-5-yl]pyridine-3-carboxamide]
3 |  | ≤ 5 | CN(C[C@H]1CC[C@H](n2cc(NC(=O)c3cnn4ccc(N5CCCC5)nc34)c(C(F)F)n2)CC1)[C@H]1CCN(c2cccc3c2n(C)c(=O)n3C2CCC(=O)NC2=O)C[C@H]1F (single isomer, unassigned) [I-21]
4 | < 10 | ≤ 5 | CN(C[C@H]1CC[C@H](n2cc(NC(=O)c3cnn4ccc(N5C[C@H]6C[C@@H]5CO6)nc34)c(C(F)F)n2)CC1)[C@H]1CCN(c2cccc3c2n(C)c(=O)n3C2CCC(=O)NC2=O)C[C@H]1F (single isomer, unassigned) [I-27]
5 | < 10 | ≥ 5 | CN(C[C@H]1CC[C@H](n2cc(NC(=O)c3cnn4ccc(N5C[C@H]6C[C@@H]5CO6)nc34)c(C(F)F)n2)CC1)[C@H]1CCN(c2cccc3c2n(C)c(=O)n3C2CCC(=O)NC2=O)C[C@@H]1F (single isomer, unassigned) [I-28]
6 | < 10 | ≥ 5 | O=C1CCC(c2ccc(N3CC(N4CCN([C@H]5CC[C@H](n6cc(NC(=O)c7cnn8ccc(N9C[C@H]%10C[C@@H]9CO%10)nc78)c(C(F)F)n6)CC5)CC4)C3)cc2Cl)C(=O)N1 (single isomer, unassigned) [I-46]
7 | < 10 | ≥ 5 | Cn1c(=O)n(C2CCC(=O)NC2=O)c2cccc([C@@H]3CCN(C[C@H]4CC[C@H](c5nc6cc(C(C)(C)O)c(NC(=O)c7cccc(C(F)(F)F)n7)cc6s5)CC4)C[C@H]3F)c21 (single isomer, unassigned) [I-102]
8 |  | ≥ 5 | CN(C[C@H]1CC[C@H](c2nc3cc(C(C)(C)O)c(NC(=O)c4cncc(C(F)(F)F)c4)cc3s2)CC1)[C@H]1CCN(c2cccc3c2n(C)c(=O)n3C2CCC(=O)NC2=O)C[C@@H]1F (single isomer, unassigned) [I-160]
9 |  | ≥ 5 | CN(C[C@H]1CC[C@H](c2nc3cc(C(C)(C)O)c(NC(=O)c4cccc(C(F)(F)F)c4)cc3s2)CC1)[C@@H]1CCN(c2cccc3c2n(C)c(=O)n3C2CCC(=O)NC2=O)C[C@H]1F (single isomer, unassigned) [I-176]
10 |  | ≥ 5 | CN(C[C@H]1CC[C@H](c2nc3cc(C(C)(C)O)c(NC(=O)c4cccc(C(F)(F)F)c4)cc3s2)CC1)[C@H]1CCN(c2cccc3c2n(C)c(=O)n3C2CCC(=O)NC2=O)C[C@@H]1F (single isomer, unassigned) [I-177]
11 |  | ≤ 5 | COc1cn2nc([C@H]3CC[C@H](CN(C)[C@H]4CCN(c5cccc6c5n(C)c(=O)n6C5CCC(=O)NC5=O)C[C@H]4F)CC3)cc2cc1NC(=O)c1cncc(C(F)(F)F)n1 (single isomer, unassigned) [I-219]
12 |  | ≤ 5 | Cn1c(=O)n(C2CCC(=O)NC2=O)c2cccc(N3CC[C@H](CN4CCN(C[C@H]5CC[C@H](n6cc(NC(=O)c7cnn8ccc(N9C[C@H]%10C[C@@H]9CO%10)nc78)c(C(F)F)n6)CC5)CC4)C3)c21 (stereo partly drawn) [I-114]
13 |  | ≤ 5 | COc1cn2nc([C@H]3CC[C@H](CN4CC[C@@H](c5cccc6c5n(C)c(=O)n6C5CCC(=O)NC5=O)[C@H](F)C4)CC3)cc2cc1NC(=O)c1cncc(C(F)(F)F)n1 (stereo partly drawn) [I-166]
14 |  | ≥ 5 | CN(C[C@H]1CC[C@H](c2nc3cc(C(C)(C)O)c(NC(=O)c4cccc(C(F)(F)F)n4)cc3o2)CC1)[C@H]1CCN(c2cccc3c2n(C)c(=O)n3C2CCC(=O)NC2=O)C[C@H]1F (stereo partly drawn) [I-178]
15 |  | ≤ 5 | Cn1nc(C2CCC(=O)NC2=O)c2cccc(N3CCC4(CCN(C[C@H]5CC[C@H](n6cc7cc(NC(=O)c8cncc(C#N)c8)c(C(C)(C)O)cc7n6)CC5)CC4(F)F)CC3)c21 (stereo partly drawn) [I-220]
16 |  | ≤ 5 | Cn1c(=O)n(C2CCC(=O)NC2=O)c2cccc(N3CC4(CCN(C[C@H]5CC[C@H](n6cc7cc(NC(=O)c8cncc(C(F)(F)F)n8)ncc7n6)CC5)CC4(F)F)C3)c21 (stereo partly drawn) [I-221]
17 |  | ≤ 5 | Cn1c(=O)n(C2CCC(=O)NC2=O)c2cccc([C@H]3C[C@H](COC4CCN(C[C@H]5CC[C@H](n6cc(NC(=O)c7cnn8ccc(N9C[C@H]%10C[C@@H]9CO%10)nc78)c(C(F)F)n6)CC5)CC4)C3)c21 (stereo partly drawn) [I-267]
18 | 100 to 200 |  | Cn1c(=O)n(C2CCC(=O)NC2=O)c2cccc(N3CCN(C[C@H]4CC[C@H](n5cc6cc(NC(=O)c7cncc(C(F)(F)F)n7)ccc6n5)CC4)[C@@H](C(F)(F)F)C3)c21 (stereo partly drawn) [I-369]
19 | > 200 |  | CN1C(=O)CCC(n2c(=O)n(C)c3c([C@@H]4CCN(C[C@H]5CC[C@H](n6cc7cc(NC(=O)c8cncc(C(F)(F)F)n8)ccc7n6)CC5)CC4(F)F)cccc32)C1=O (stereo partly drawn) [I-378]
20 | > 200 |  | CN1C(=O)CCC(n2c(=O)n(C)c3c([C@@H]4CCN(C[C@H]5CC[C@H](n6cc7cc(NC(=O)c8cncc(C(F)(F)F)n8)ccc7n6)CC5)C[C@H]4F)cccc32)C1=O (stereo partly drawn) [I-382]
21 | < 10 |  | COc1ccc2c(c1N1CCC3(CCN(C[C@H]4CC[C@H](n5cc6cc(NC(=O)c7cncc(C#N)c7)c(C(C)(C)O)cc6n5)CC4)CC3(F)F)CC1)n(C)c(=O)n2C1CCC(=O)NC1=O (stereo partly drawn) [I-397]
22 | > 200 |  | COc1cc(C(=O)Nc2ccc3nn([C@H]4CC[C@H](CN5CCC6(CCN(c7cccc8c7n(C)c(=O)n8C7CCC(=O)NC7=O)CC6)C(F)(F)C5)CC4)cc3c2)nc(C(F)(F)F)c1 (stereo partly drawn) [I-398]
23 | 10 to 100 |  | Cn1c(=O)n(C2CCC(=O)NC2=O)c2ccc(F)c(N3CCC4(CCN(C[C@H]5CC[C@H](n6cc7cc(NC(=O)c8cncc(C(F)(F)F)n8)ccc7n6)CC5)CC4(F)F)CC3)c21 (stereo partly drawn) [I-399]
24 | > 200 |  | COc1cc(C(=O)Nc2ccc3nn([C@H]4CC[C@H](CN5CC[C@@H](c6cccc7c6n(C)c(=O)n7C6CCC(=O)NC6=O)C(F)(F)C5)CC4)cc3c2)nc(C(F)(F)F)c1 (stereo partly drawn) [I-401]
25 | > 200 |  | Cc1cc(C(=O)Nc2ccc3nn([C@H]4CC[C@H](CN5CC[C@@H](c6cccc7c6n(C)c(=O)n7C6CCC(=O)NC6=O)C(F)(F)C5)CC4)cc3c2)nc(C(F)(F)F)c1 (stereo partly drawn) [I-402]
26 | > 200 |  | Cc1cc(C(=O)Nc2ccc3nn([C@H]4CC[C@H](CN5CCC6(CCN(c7cccc8c7n(C)c(=O)n8C7CCC(=O)NC7=O)CC6)C(F)(F)C5)CC4)cc3c2)nc(C(F)(F)F)c1 (stereo partly drawn) [I-403]
27 | < 10 |  | Cn1c(=O)n(C2CCC(=O)NC2=O)c2cccc([C@@H]3CCN(C[C@H]4CC[C@H](n5cc6cc(NC(=O)c7cncc(C#N)c7)c(C(C)(C)O)cc6n5)CC4)CC3(F)F)c21 (stereo partly drawn) [I-416]
